Laboratory results: patent publication US12144819B2, “Pharmaceutical composition and use” (SpineThera, priority 2012, dated 2024)

Legend:
[1] = In-vitro elution of the API from the microparticles in PBS; assay type: physicochemical
Description: In-vitro elution of the API from the microparticles can be determined by adding a known amount of the microparticles to 5 mL phosphate buffered saline (PBS) solution at a pH 7.4, and maintaining a constant temperature of 37° C. At selected time intervals, a 2 mL aliquot can be withdrawn through a 0.4 μm filter for analysis; the amount of the aliquot withdrawn can be replenished with an equal amount of preheated PBS. The concentration of the API in the aliquot can be determined according to known methods such as HPLC. Sampling intervals can be adjusted to maintain drug concentration below sink conditions in the test vials.

[2] = Epidural administration in canine subjects using fluoroscopically-guided injection; assay type: in vivo, beagles; conditions: for drug released in-vivo (elution profile): procedure A1 microparticles
Text: This exemplary approach is a modified version of that described by Cohen (vide supra). Male and female beagles can be acclimated and subjected to baseline neurologic and clinical chemistry examinations. Prior to treatment dogs can be anesthetized with propofol. The injection site can be shaved, and a 19-gauge epidural Touhy needle can be inserted at the L6-7 or L7-S1 interspace. A 22-gauge catheter can be threaded 8-10 cm to approximately the L2-L3 level. The position of the catheter can be verified by injection of contrast media under fluoroscopy. Two (2) mL of an aqueous suspension of microparticles, prepared according to procedure A1 above, can be injected over a period of about 2 minutes. After about 10 minutes the catheter can be removed. Before and after surgery, subject baseline measurements can be obtained, including, for example, temperature and specific behavioral measures (pain tolerance, reflex, mobility, etc.). Before injection, and every 2 days after injection for 84 days, heart rate, blood pressure in the tail, spinal reflexes, sensory and pain responses, proprioception, gait and movement, cranial nerve function, and fundoscopic examination data can be recorded to observe the safety of the injected pharmaceutical composition. Blood samples can be collected prior to injection, then at 1, 2, 4, 8, 24, and 72 hour intervals after injection, and every 7 days thereafter to analyze for the pharmaceutical agent and its metabolized forms. At scheduled intervals, necropsy and histopathology can be performed as described by Cohen, vide supra, in a sub-set of animals.
Without wishing to be bound by theory, pharmaceutical compositions of the type described herein are not expected to elicit any significant or appreciable degree of inflammatory response or cause necrosis. Histological examination may reveal the microparticles to be localized and agglomerated within the epidural space at the site of injection with no evidence of the presence of the injection vehicle after 2 about days. Contents of the treated epidural pocket can be recovered by dissection. The injected microparticles can be isolated from epidural tissue and assayed for drug concentration to determine an in-vivo elution profile. It can be reasonably expected that dexamethasone acetate will be released continuously over 12 weeks, with about 20% of the drug released in 3 days, 50% in 25 days, and 80% in 70 days, with complete microparticle polymer degradation in about 16 weeks.

9 alpha-fluoro-11-beta, 17-alpha, 21-trihydroxy-16 alpha-methylpregna-1,4-diene-3,20-dione 21-acetate [dexamethasone acetate]
duration of continuous release in-vitro [1]: 12 weeks | drug released in-vitro ([1]; in 3 days): about 10% | drug released in-vitro ([1]; in 25 days): ~25% | drug released in-vitro ([1]; in 70 days): ~40% | duration of continuous release in-vivo [2]: 12 weeks | time to complete microparticle polymer degradation [2]: about 16 weeks | drug released in-vivo (elution profile) ([2]; in 3 days): about 20% | drug released in-vivo (elution profile) ([2]; in 25 days): ~50% | drug released in-vivo (elution profile) ([2]; in 70 days): ~80%
